How the values were obtained:
[1] = tested on: female german cockroaches; experiment: Knock down effect on female german cockroaches by direct spraying; format: in vivo; conditions: for % KD after 5 min. / % KD after 10 min. / % KD after 15 min. / % KD after 30 min. / % KD after 60 min.: direct spraying 0.5 ml kerosene/acetone; for KD50 times more active than compound B: compound A vs compound B
Protocol: The knock down effect of the same two compounds was determined on female german cockroaches by direct spraying as 0.5 ml of a solution in equal volumes of kerosene and acetone. 20 insects were used for each test and the knock down effect was determined at 5,10,15,30 and 60 minutes after treatment.

house flies = experiment: Lethal insecticidal activity on house flies, topical application to dorsal thorax; format: in vivo; conditions: for % Mortality / DL50: 24 hours after topical treatment, 1 μl acetone solution
Protocol: The lethal insecticidal activity of d-allethrolone chrysanthemate (compound A) was compared with dl-allethrolone chrysanthemate (compound B) on house flies by topically applying 1 μl of an acetone solution thereof to the dorsal thorax of the insect. 50 insects were used for each dose and the number of dead was determined 24 hours after the treatment.

[2] = vs chrysanthemic acid ester of levo allethrolone; Elliott, J. Sci. Food Agr. 1954; cited from earlier work
[3] = Insecticidal activity of d-allethrolone d-trans chrysanthemate vs the dl-allethrolone ester (general statement); format: in vivo

SMILES	% KD after 5 min. ([1]; 250 mg/l) [%]	% KD after 10 min. ([1]; 250 mg/l) [%]	% KD after 15 min. ([1]; 250 mg/l) [%]	% KD after 30 min. ([1]; 250 mg/l) [%]	% KD after 60 min. ([1]; 250 mg/l) [%]	% KD after 5 min. ([1]; 500 mg/l) [%]	% KD after 10 min. ([1]; 500 mg/l) [%]	% KD after 15 min. ([1]; 500 mg/l) [%]	% KD after 30 min. ([1]; 500 mg/l) [%]	% KD after 60 min. ([1]; 500 mg/l) [%]	% KD after 5 min. ([1]; 1000 mg/l) [%]	% KD after 10 min. ([1]; 1000 mg/l) [%]	% KD after 15 min. ([1]; 1000 mg/l) [%]	% KD after 30 min. ([1]; 1000 mg/l) [%]	% KD after 60 min. ([1]; 1000 mg/l) [%]	% Mortality (house flies; 50 mg/l) [%]	% Mortality (house flies; 100 mg/l) [%]	DL50 (house flies) [mg/L]	other results
C=CCC1=C(C)C(OC(=O)C2C(C=C(C)C)C2(C)C)CC1=O (racemic) [B, dl-allethrolone chrysanthemate, reference compound]	7.5	7.5	12.5	12.5	12.5	30.9	50.0	54.7	47.6	45.2	46.1	64.1	74.3	79.4	89.7	16.2	33.7	224.3	% Mortality (house flies; 200 mg/l): 49.0%; % Mortality (house flies; 300 mg/l): 55.1%
C=CCC1=C(C)[C@@H](OC(=O)C2C(C=C(C)C)C2(C)C)CC1=O (stereo partly drawn) [A, d-allethrolone chrysanthemate]	45.0	52.5	65.0	62.5	65.0	61.9	71.4	83.3	85.7	88.0	100	100	100	100	100	45.6	65.3	54	KD50 times more active than compound B ([1]; 5 minutes): about 4.3 times; KD50 times more active than compound B ([1]; 30 minutes): 2.8 times; % Mortality (house flies; 25 mg/l): 49.0%; % Mortality (house flies; 75 mg/l): 76.6%; times more active than compound B (lethal activity) (house flies; compound A vs compound B, Table II): 4.15 times; times more effective as an insecticide than the ester of levo allethrolone [2]: 4 times
C=CCC1=C(C)[C@@H](OC(=O)[C@@H]2[C@@H](C=C(C)C)C2(C)C)CC1=O [d-allethrolone d-trans chrysanthemate]																			insecticidal activity relative to the corresponding dl-allethrolone ester [3]: much superior insecticidal activity
